Data taken from publication PMC1069517 (Nucleic Acids Research, 2005).

T1: a/eIF2 α–γ dimer (Saccharolobus solfataricus, UniProt Q980A5)
T1 sequence (Q980A5 1-415): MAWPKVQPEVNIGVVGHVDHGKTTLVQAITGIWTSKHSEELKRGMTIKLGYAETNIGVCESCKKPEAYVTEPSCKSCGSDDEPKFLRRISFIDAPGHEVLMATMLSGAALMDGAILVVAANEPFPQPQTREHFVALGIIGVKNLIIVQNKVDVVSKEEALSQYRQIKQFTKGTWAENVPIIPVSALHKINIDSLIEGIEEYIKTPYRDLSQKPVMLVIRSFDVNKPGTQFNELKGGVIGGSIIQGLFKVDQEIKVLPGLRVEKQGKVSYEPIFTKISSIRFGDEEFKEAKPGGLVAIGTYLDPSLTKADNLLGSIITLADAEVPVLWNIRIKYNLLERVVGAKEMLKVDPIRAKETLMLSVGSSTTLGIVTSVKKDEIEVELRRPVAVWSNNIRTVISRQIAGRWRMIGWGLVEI
T1 sequence (Q97Z79 1-266 partner): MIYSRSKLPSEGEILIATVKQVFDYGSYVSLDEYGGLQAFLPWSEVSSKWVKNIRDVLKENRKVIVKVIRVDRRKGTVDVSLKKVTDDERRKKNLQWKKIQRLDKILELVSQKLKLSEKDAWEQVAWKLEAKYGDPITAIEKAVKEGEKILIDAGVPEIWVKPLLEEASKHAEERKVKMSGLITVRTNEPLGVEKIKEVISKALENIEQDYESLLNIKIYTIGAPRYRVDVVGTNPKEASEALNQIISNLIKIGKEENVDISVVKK

T2: a/eIF2 β–γ dimer (Saccharolobus solfataricus, UniProt Q980A5)
T2 sequence (Q980A5 1-415): T1 sequence (Q980A5 1-415)
T2 sequence (Q97W59 1-139 partner): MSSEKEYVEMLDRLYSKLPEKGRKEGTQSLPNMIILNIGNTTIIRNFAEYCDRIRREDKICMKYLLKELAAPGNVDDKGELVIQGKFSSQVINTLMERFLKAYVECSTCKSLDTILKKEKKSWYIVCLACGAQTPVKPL

T3: a/eIF2 alpha subunit;a/eIF2 beta subunit;a/eIF2 gamma subunit (Saccharolobus (Sulfolobus) …, UniProt Q97Z79;Q97W59;Q980A5 1-266;1-139;1-415, ||)
T3 sequence 1: T1 sequence (Q97Z79 1-266 partner)
T3 sequence 2: T2 sequence (Q97W59 1-139 partner)
T3 sequence 3: T1 sequence (Q980A5 1-415)

T4: a/eIF2 alpha subunit;a/eIF2 gamma subunit (Saccharolobus (Sulfolobus) …, UniProt Q97Z79;Q980A5 1-266;1-415, |)
T4 sequence 1: T1 sequence (Q97Z79 1-266 partner)
T4 sequence 2: T1 sequence (Q980A5 1-415)

B1: [35S]Met-tRNAi (structured_RNA)
RNA: AGCGGGGUGGGCUAGCCUGGUAAGGCCGCGGGGCUCAUAACCCCGAGGUCCCUGGUUCAAAUCCAGGCCCCGCUACCA
modifications: 3' aminoacylated with methionine; no base modifications (in vitro transcript)

Assays:
a/eIF2 α–γ dimer = biological target: T1, a/eIF2 α–γ dimer; test: nitrocellulose filter binding; conditions: 65 °C, 30 mM KCl, 50 mM HEPES pH 7.5, 0.5 mM MgCl2, 1 mM DTT; labelled compound
a/eIF2 β–γ dimer = biological target: T2, a/eIF2 β–γ dimer; test: nitrocellulose filter binding; conditions: 65 °C, 30 mM KCl, 50 mM HEPES pH 7.5, 0.5 mM MgCl2, 1 mM DTT; labelled compound
[1] = biological target: T3, a/eIF2 alpha subunit;a/eIF2 beta …; test: filter binding
[2] = biological target: T4, a/eIF2 alpha subunit;a/eIF2 gamma …; test: filter binding

| Molecule | nitrocellulose filter binding (a/eIF2 α–γ dimer) | nitrocellulose filter binding (a/eIF2 β–γ dimer) | binding result [1] | binding result [2] |
| --- | --- | --- | --- | --- |
| Nc1nc2c(ncn2[C@@H]2O[C@H](COP(=O)(O)OP(=O)(O)O)[C@@H](O)[C@H]2O)c(=O)[nH]1 [GDP] | displayed GDP and GTP binding curves essentially overlapping with those obtained with the γ-subunit alone | displayed GDP and GTP binding curves essentially overlapping with those obtained with the γ-subunit alone |  |  |
| Nc1nc2c(ncn2[C@@H]2O[C@H](COP(=O)(O)OP(=O)(O)OP(=O)(O)O)[C@@H](O)[C@H]2O)c(=O)[nH]1 [GTP] | displayed GDP and GTP binding curves essentially overlapping with those obtained with the γ-subunit alone | displayed GDP and GTP binding curves essentially overlapping with those obtained with the γ-subunit alone |  |  |
| B1 |  |  | binds | binds |
